In brackets after ≈: the same amount, converted by molar mass. Like-named read-outs stand apart in the source and are kept apart here.
Legend:
Type in all cases: in vivo
[1] = system: tobacco cutworm (Spodoptera litura); assay: Test Example 2: insecticidal test on tobacco cutworm fourth larvae, artificial diet; conditions: 144 h
Method: (§1) Anyone of Compound Nos. 1 to 12 (10 parts), polyoxyethylene styrylphenyl ether (14 parts), calcium dodecylbenzenesulfonate (6 parts), xylene (35 parts) and dimethylformamide (35 parts) are mixed well to make an emulsifiable concentrate preparation.
An emulsifiable concentrate preparation formulated as in Formulation Example 2 was diluted with water to make a designed dilution of the test compound. An artificial diet (13 g) for tobacco cutworm (Spodoptera litura) was impregnated with said dilution (2 ml) and placed into a polyethylene-made cup of 11 cm in diameter. Fourth larvae (10 insects) of tobacco cutworm were released therein. Six days thereafter, observation was made to determine the number of death, and the LC50 value (i.e. lethal concentration to 50% death) was calculated therefrom (two replications).

[2] = system: common mosquito (Culex pipiens pallens); assay: Test Example 1: emergence of common mosquito from last instar larvae; conditions: 3.5 ppm in water; twenty last instar larvae; feeding up to emergence; two replications
Method: as §1
An emulsifiable concentrate preparation formulated as in Formulation Example 2 was diluted with water to make a dilution containing the test compound in a concentration of 3.5 ppm. The dilution (100 ml) was charged in a plastic cup of 180 ml volume, and twenty last instar larvae of common mosquito (Culex pipiens pallens) were released therein. Feeding was continued up to emergence, and the rate of emergence was observed (two replications).

[3] = system: housefly (Musca domestica); assay: Test Example 4: emergence of housefly from nits reared on treated artificial culture; conditions: 10 ppm dilution (10,000 fold, 28 ml) in artificial culture; fifty nits, cultivated until pupation
Method: as §1
Powdered animal feed (2 g) was thoroughly mixed with bran (14 g). An emulsifiable concentrate preparation formulated as in Formulation Example 2 was diluted with water to make a 10,000 fold dilution (corresponding to 10 ppm; 28 ml) and added to the above mixture. The resultant mixture was stirred well to make an artificial culture for housefly. Fifty nits of housefly (Musca domestica) were cultivated therein until their pupation. The obtained pupae were placed into a plastic cup, and the rate of emergence was observed.

[4] = system: rice stem borer (Chilo suppressalis); assay: Test Example 3: insecticidal test on rice stem borer ten-day old larvae, artificial diet; conditions: 192 h, eight days, two replications
Method: as §1
An emulsifiable concentrate preparation formulated as in Formulation Example 2 was diluted with water to make a designed dilution of the test compound. Five grams of artificial diet placed into a polyethylene-made cup of 5.5 cm in diameter was impregnated with said dilution (1 ml). Ten-day old larvae (10 insects) of rice stem borer (Chilo suppressalis) were released therein. Eight days thereafter, observation was made to determine the number of death, and the LC50 value was calculated therefrom (two replications).

[5] = lethal concentration to 50% death, fourth larvae, artificial diet, six days, two replications, read-out: LC50

Row | Structure (SMILES) | LC50 [1] [µg/mL] | LC50 [1, 5] [µg/mL] | Rate of emergence [2] [%] | Rate of emergence [3] [%] | LC50 [4] [µg/mL]
1 | O=C(NC(=O)c1c(F)cccc1F)Nc1ccc(Cl)cc1 [A, Diflubenzuron, reference compound] | 4.4 (≈ 14.2 µM) |  |  |  | 
2 | CNC(=O)ON=C(C)SC [B, Methomyl, reference compound] | 8 (≈ 49.3 µM) |  |  |  | 
3 | O=C(NC(=O)c1c(F)cccc1F)Nc1ccc(Oc2cc(Cl)cc(Cl)c2)cc1 [C, 3-(2,6-difluorobenzoyl)-1-[4-(3,5-dichlorophenoxy)phenyl]urea, reference compound] |  | 6.5 (≈ 14.9 µM) |  |  | 
4 | Cc1cc(NC(=O)NC(=O)c2c(F)cccc2F)cc(C)c1Oc1cc(F)cc(F)c1 [Compound 1, N-2,6-difluorobenzoyl-N'-4-(3,5-difluorophenoxy)-3,5-dimethylphenylurea] |  | 0.5 (≈ 1.16 µM) | 0 | 2 | 
5 | O=C(NC(=O)c1c(F)cccc1F)Nc1cc(Cl)c(Oc2cc(F)cc(F)c2)c(Cl)c1 [Compound 2, N-2,6-difluorobenzoyl-N'-4-(3,5-difluorophenoxy)-3,5-dichlorophenylurea] |  | 2.5 (≈ 5.28 µM) | 0 | 0 | 12 (≈ 25.4 µM)
6 | O=C(NC(=O)c1c(F)cccc1F)Nc1cc(Cl)c(Oc2c(F)c(F)c(F)c(F)c2F)c(Cl)c1 [Compound 3] |  | 2.3 (≈ 4.36 µM) | 0 | 0 | 
7 | Cc1cc(NC(=O)NC(=O)c2ccccc2Cl)cc(C)c1Oc1cc(F)cc(F)c1 [Compound 4] |  | 1.5 (≈ 3.48 µM) | 0 |  | 10 (≈ 23.2 µM)
8 | O=C(NC(=O)c1ccccc1Cl)Nc1cc(Cl)c(Oc2cc(F)cc(F)c2)c(Cl)c1 [Compound 5] |  |  | 0 |  | 
9 | O=C(NC(=O)c1ccccc1Cl)Nc1cc(Cl)c(Oc2c(F)c(F)c(F)c(F)c2F)c(Cl)c1 [Compound 6] |  | 2.7 (≈ 5.14 µM) | 0 | 0 | 
10 | O=C(NC(=O)c1ccccc1Cl)Nc1cc(Cl)c(Oc2c(Cl)c(Cl)c(Cl)c(Cl)c2Cl)c(Cl)c1 [Compound 7] |  |  | 0 |  | 
11 | O=C(NC(=O)c1c(F)cccc1F)Nc1cc(Cl)c(Oc2c(Cl)c(Cl)c(Cl)c(Cl)c2Cl)c(Cl)c1 [Compound 8] |  |  | 0 |  | 15 (≈ 24.6 µM)
12 | Cc1cc(NC(=O)NC(=O)c2c(F)cccc2F)cc(C)c1Oc1c(F)c(F)c(F)c(F)c1F [Compound 9] |  | 0.64 (≈ 1.32 µM) | 0 |  | 
13 | Cc1cc(NC(=O)NC(=O)c2ccccc2Cl)cc(C)c1Oc1c(F)c(F)c(F)c(F)c1F [Compound 10] |  | 1.2 (≈ 2.48 µM) | 0 |  | 
14 | Cc1cc(NC(=O)NC(=O)c2c(F)cccc2Cl)cc(C)c1Oc1cc(F)cc(F)c1 [Compound 11] |  | 1.6 (≈ 3.56 µM) | 0 |  | 
15 | Cc1cc(NC(=O)NC(=O)c2c(F)cccc2Cl)cc(C)c1Oc1c(F)c(F)c(F)c(F)c1F [Compound 12] |  |  | 0 |  | 
